What was measured:
Group B Streptococci = test: Bacteriocidal time study, 200 ppm gNO, saline suspension; assay type: cell-based, Group B Streptococcus
Method: Following the dose and time ranging studies, a series of experiments were performed to determine the time required to effectively induce a bacteriocidal effect with 200 parts per million of gNO, a concentration just above the dose used in the dose-ranging study, on a representative collection of drug resistant gram-positive and gram-negative strains of bacteria associated with clinical infection. A successful bacteriocidal effect was defined as a decrease in bacteria greater than 3 log10 cfu/ml. Further, C. albicans, Methicillin Resistant S. aureus (MRSA), a particularly resistant strain of P. aeruginosa from a cystic fibrosis patient, Group B Streptococcus, and M. smegmatis were also included to see if yeast, multi-drug resistant strains of bacteria, and actinomycetes have a similar response. The drug-resistant bacteria represent a variety of pathogens that contribute to both respiratory and wound infections.
For these experiments, saline was selected as a suspension media because it would not mask the direct effect of gNO as a bacteriocidal, whereas fully supplemented growth medium might introduce external variables (e.g., buffer or react with gNO). Other media might also provide metabolites and replenish nutrients that produce enzymes that protect bacteria from oxidative and nitrosative damage, thereby masking the effect of gNO. […] In saline, the colonies were static but remained viable. This is similar to the approach of Webert and Jean's use of animal models. Webert K E, et al (2000), Effects of inhaled nitric oxide in a rat model of Pseudomonas aeruginosa pneumonia, Crit. Care Med, 28(7):2397-2405 and Jean D, et al., (2002) Beneficial effects of nitric oxide inhalation on pulmonary bacterial clearance, Critical Care Medicine. 30(2):442-7.
The latent period was then followed by an abrupt death of all cells. Gram negative and gram positive bacteria, antibiotic resistant bacterial strains, yeast and mycobacteria were all susceptible to 200 ppm gNO. Of importance, is the observation that the two drug resistant bacteria strains were also susceptible.

[1] = tested on: fibroblasts grown in a 3D matrix; test: Fibroblasts grown in a 3D matrix, migration and proliferation; assay type: cell-based; settings: 200 ppm NO for 8 hours per day for 3 days; compared with air or conventional incubator
S. aureus = test: gNO dose study, colony growth on agar plates; assay type: cell-based
Method: FIG. 6 depicts a S. aureus dosage curve for exposure to gaseous NO (gNO) with bacteria grown on solid media. Relative percentages of growth of S. aureus colony forming units (cfu) at 50, 80, 120 and 160 parts per million (ppm) of nitric oxide compared with growth of S. aureus cfu in medical air (100%) are shown.
To study the effects of gaseous nitric oxide on potential pathogens, a custom gas exposure incubator was designed and validated for temperature, humidity, and gas concentrations, providing an environment that matches that of a microbiologic incubator, while enabling controlled exposure of precise concentrations of the gas. […] The gNO chamber allowed control and adjustment of following factors in all in vitro studies: gNO dose, total air flow, NO2 levels, O2 levels, CO2 levels, temperature, and humidity. For the initial pilot studies, two strains of bacterial pathogen were selected based on two proposed clinical applications of gNO for respiratory infections and topical application. P. aeruginosa is associated primarily with pulmonary disease, but may also be associated with skin infection such as in severe burns. S. aureus is associated with surface wound infections. Both of these micro-organisms were chosen for the pilot study.
The first step in the process of evaluating the direct effect of gNO on bacteria was to design a simple study to determine what dose, if any, would be an approximate lethal concentration level for microbes. Once an optimal dose was estimated, then a timing study would be conducted. For these initial studies, highly dense inoculums of P. aeruginosa and S. aureus suspensions (10^8 cfu/ml) were plated onto agar plates. These plates were then exposed to various concentrations of gNO in the exposure device in order to evaluate the effect on colony growth.

[2] = tested on: full thickness infected wound; test: Histology of full thickness infected wound biopsies; assay type: in vivo, rabbits; settings: 200 ppm gNO
Method: FIG. 13 illustrates histology analysis of full thickness infected wound exposed to 200 ppm gNO for 24 hours.
(§1) In vivo studies in animal models have further shown the beneficial effects of nitric oxide gas. In an animal model, full-thickness cutaneous wounds (Set A: four rabbits with eight 8.0 mm punch biopsies & Set B: 4 rabbits with two 50×15 mm wounds) were made on each side of dorsal midline and infected with equal volume of Staphylococcus aureus suspension on day zero. On day one, treated groups in A and B were respectively exposed to 200 and 400 ppm gNO for total of three days. Set A was exposed for two 4-hour sessions, interrupted by 1-hour of rest, inside a specialized restraining exposure chamber. A 24-hour continuous delivery model was used for animals in Set B by design of a specialized wound patch. Control groups were only exposed to medical grade air with corresponding flow rate. Four random sample punch biopsies (8.0 mm) were collected on post wounding days 3 and analyzed for bacterial content. Another four punch biopsies from both wound and normal skin tissue were collected for fibroblast viability analysis and toxic effects of gNO.
FIG. 13 presents histological analysis of tissue blocks prepared on wound punch biopsies from animals in treated and control groups. Samples from the control group show more advanced neutrophil infiltration and so a higher degree of inflammatory reaction. […] Wounds treated with gNO also show a layer of scab closing on the wound, but control wounds remain open for longer period of time.

[3] = Full thickness infected wound model, toxicity, serum NOx and methemoglobin; assay type: in vivo, rabbits
Excerpt: as §1
On average well over 10 fold drop (p<0.05) in bacterial content is observed in comparison between control and treated groups.
FIG. 12 indicates the level of methemoglobin (MetHb) in animal's blood following 6 day intermittent exposure to 200 ppm gNO.

human endothelial cells = test: Tube formation in matrigel; assay type: cell-based; settings: 200 ppm NO versus air, 8 hours or 24 hours
Method: Left panels at 8 hours of exposure. Right panels at 24 hours of exposure.

SMILES: [N]=O [gNO, nitric oxide]
- LD100 (Group B Streptococci): 2 h
- Latent Period* (Group B Streptococci): 1 h
- −2.5 Log10 (Group B Streptococci; time to −2.5 log10 cfu/ml): 1.5 hrs
- migration of fibroblasts [1]: does not appear to affect
- proliferation of fibroblasts [1]: does not appear to interfere
- colony size and number after transfer to a conventional incubator (S. aureus; 24 hours after gNO exposure, controls overgrew): remained the same in size and number
- time required to achieve the >90% reduction of colony formation (S. aureus; gNO greater than 120 ppm, agar plates): 8 to 12 h
- reduction of colony formation (S. aureus; gNO greater than 120 ppm, agar plates, compared with medical air): greater than 90%
- survival (S. aureus; increasing gNO to 120 ppm, agar plates): 5-10%
- toxic effects (cellular debris due to apoptosis), histology [2]: No toxic effects
- healing process, histology ([2]; compared with control wounds): healthier healing process
- neutrophil infiltration in wound ([2]; compared with control wounds): lower level of neutrophil concentration
- blood serum NOx (NO2 and NO3) level ([3]; 200 ppm gNO intermittently for 6 days): None of the samples show an increased level of NOx
- toxic effect or damage in the skin of treated animals ([3]; 200 ppm gNO, compared with control): no toxic effect or damage were observed
- blood methemoglobin (MetHb) level ([3]; 6 day intermittent exposure to 200 ppm gNO, compared with air control): did not show an increase level of MetHB
- tube formation (human endothelial cells): no significant difference

From patent US8795222B2, “Device and method for treatment of surface infections with nitric oxide” (Pulmonox Technologies Corp., priority 2000, dated 2014)
